From PubChem BioAssay (NCI) come the findings set out here.

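How tested: cells in 96-well plates exposed to compound for 48 hours at five concentrations. TGI: total growth inhibition.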 Where a SMILES comes first, the peptide text is derived from it. [ ]: non-standard residue; d: D form. The star is where a group is joined. Hyp = O=C(O)[CH]1C[CH](O)CN1; Cbz = O=C(OCc1ccccc1)* Where only a bound is given, the exact number is not on record here.

Assay in all cases: NCI tumour cell line growth inhibition, 48 h
Assay [1] relates to 786-0 renal.
Assay [2] has as its system A498 renal.
In assay [3] the test system is A549 NSCLC.
Assay [4] concerns EKVX NSCLC.
The subject of assay [5] is HCC-2998 colon.
In assay [6] the test system is HL-60(TB) leukemia.
The test system of assay [7] is HS 578T breast.
Assay [8] concerns KM12 colon.
Assay [9] concerns M14 melanoma.
Assay [10] deals with MALME-3M melanoma.
In assay [11] the test system is MCF7 breast.
For assay [12], the system named is MDA-MB-435.
Assay [13] concerns MDA-N.
The subject of assay [14] is OVCAR-4 ovarian.
The subject of assay [15] is SF-295 CNS.
In assay [16] the test system is SW-620 colon.
In assay [17] the test system is TK-10 renal.

On to `O=C1NC(=O)C23C(=O)NC(=O)C12C1C=CC3CC1` (stereo unspecified), for which the TGI in assay [1], in [2], in assay [3], in assay [4], in [5] and in assay [6] was above 10 µM each time. Also, the TGI in [7], in [8], in [9], in assay [10], in assay [11] and in [12] was above 10 µM in each case. The TGI in assay [13], in [14], in [15], in assay [16] and in assay [17] was above 10 µM in each case.

As to `COC(=O)C1=C(C(=O)OC)N(c2ccncc2)C(c2ccco2)=CC1c1ccccc1[N+](=O)[O-]` (stereo unspecified), the TGI in assay [1] came to 2.94 µM; in [2], 14.1 µM; in assay [3] it was 31.3 µM; in assay [4], 15.9 µM; in assay [5], 3.7 µM; in [6], 6.06 µM. For the same compound, the TGI in assay [7] was 27.8 µM; in assay [8], 3.38 µM; in assay [10] it was 18.7 µM; in [11], 7.06 µM; in assay [12], above 39.8 µM; in [13], 7.51 µM. In addition, the TGI was found to be 15.7 µM in assay [14], 15.8 µM in [15] and 6.85 µM in assay [17].

`O=c1[nH]nc(Cc2ccc(Cl)cc2)n1CCO`: the TGI in [1], in assay [2], in assay [3], in assay [4], in assay [5] and in assay [6] was above 100 µM throughout. The TGI in assay [7], in assay [8], in assay [9], in [10], in assay [11] and in [12] was above 100 µM each time. Also, the TGI in assay [13], in assay [14], in assay [15], in assay [16] and in [17] was above 100 µM each time.

As to `O=C1/C(=C\c2cccc(Oc3ccccc3)c2)SC(c2ccccc2)N1Cc1ccccc1` (stereo unspecified), the TGI is above 100 µM in assay [1]; above 100 µM in assay [2]; above 100 µM in [3]; above 100 µM in [4]; above 100 µM in assay [5]; 78.3 µM in assay [6]. Moreover, the TGI in assay [7] was 82.5 µM; in assay [8], 83.8 µM; in assay [9], 66.7 µM; in assay [10], 57.7 µM; in assay [11], above 100 µM; in [12], 76.2 µM. Moreover, the TGI in [13] was 52.3 µM; in assay [14] it was above 100 µM; in [15] it was above 100 µM; in [16], above 100 µM; in assay [17], 99.5 µM.

In the case of `NC(=O)CNC(=O)C1CC(O)CN1C(=O)C1CCCN1C(=O)OCc1ccccc1` (stereo not drawn) (Cbz-Pro-[Hyp]-Gly-NH2; configuration not given here), the TGI in assay [1], in assay [2], in assay [3], in assay [4], in [5] and in assay [6] was above 100 µM throughout. In addition, the TGI in [7], in assay [8], in assay [9], in [10], in [11] and in assay [12] was above 100 µM throughout. For the same compound, the TGI in assay [13], in assay [14], in assay [15], in assay [16] and in [17] was above 100 µM each time.

For the compound `CC(=S)NC=C(C(N)=O)C(N)=O`, the TGI in assay [1], in assay [2], in assay [3], in assay [4], in assay [5] and in assay [6] was above 100 µM in each case. Moreover, the TGI in assay [7], in assay [8], in [9], in assay [10], in assay [11] and in assay [12] was above 100 µM each time. The TGI in [13], in assay [15] and in assay [16] was above 100 µM throughout.

Turning to `c1cc2nnc1SCCSCCCSCCS2`, the TGI in assay [1], in assay [2], in assay [3], in assay [4], in assay [5] and in assay [6] was above 100 µM in each case. Further, the TGI in assay [7], in assay [8], in assay [9], in [10], in [11] and in assay [12] was above 100 µM in each case. The TGI in assay [13], in [14], in assay [15], in [16] and in assay [17] was above 100 µM in each case.

In the case of `CN(C)c1ccc(C2=C([O-])c3cc(-[n+]4ccccc4)ccc3C2=O)cc1`, the TGI in assay [1], in assay [2], in assay [3], in assay [4], in assay [5] and in assay [6] was above 100 µM each time. For the same compound, the TGI in [7], in assay [8], in assay [10], in assay [11], in assay [12] and in assay [13] was above 100 µM each time. In addition, the TGI in [14], in assay [15], in assay [16] and in [17] was above 100 µM in each case.
